Measurements as given in patent publication US20240228542A1, “LYTIC DOMAIN FUSION CONSTRUCTS, CHECKPOINT INHIBITORS, AND METHODS OF MAKING AND USING SAME” (A28 Therapeutics Inc., priority 2020, published 2024).

Columns and labels:
[1] = system: ID8 murine ovarian carcinoma; experiment: Orthotopic ID8 murine ovarian carcinoma syngeneic model; assay type: in vivo, C57BL/6 mice
Procedure: Ovarian Cancer Orthotopic Syngeneic Mouse model—Eight-to 12-week-old female C57BL/6 mice were purchased from Taconic Farms, ID8 or IG10 cells at a concentration off 2×10^6 cells/0.2 mL per mouse were injected into the intraperitoneal cavity of C57BL/6. All mouse studies were approved by the Institutional Animal Care and Use Committee and were cared for in accordance with guidelines set forth by the American Association for Accreditation of Laboratory Animals. After cancer cell injection, mice were randomly divided into four treatment groups: 1) untreated control, 2) PD-L1 antibody (200 μg/kg intraperitoneally twice a week), 3) EP-100 (0.2 mg/kg intravenously twice a week) and 4) PD-L1 antibody plus EP-100. Treatment was initiated ten days after cancer cell injection into the intraperitoneal cavity.
C57BL/6 female mice were injected orthotopically with luciferase labeled ID8 (ID8-L) murine ovarian cancer cell line (1×10^6 cells). Mice were monitored for tumor take using a luminescent imaging system. Treatments started on day 7 after tumor cell injection and continued on days 9, 12, 16, 19, 22, and 26 (FIG. 17A). […] Each treatment and control group consisted of 10 mice. At necropsy on day 28, ascites fluids were removed and measured, and tumors were removed and weighed.
Significance between treatment groups was assessed using Wilcoxon signed Rank test analysis and ANOVA.

CD8+ T cells = experiment: T cell activation by condition media from EP-100-treated ID8 cells; assay type: cell-based, mouse; conditions: cells treated with condition media (CM) from EP-100-treated cells; controls 12.3±1.1, p=0.04
MDA-MB-435S xenograft [2] = experiment: MDA-MB-435S xenograft, multiple dose regimen; assay type: in vivo, Nu/Nu mice; conditions: for tumor free mice: multiple intravenous injections
Procedure: In order to determine the minimal effective dose necessary to reduce MDA-MB-435S xenograft weights in a multiple dose regimen, Nu/Nu female mice, outbred strain, age 8 weeks (Charles River), were injected (s.c.) into the interscapular region with a MDA-MB-435S (passage # 253)/Matrigel suspension (2×10^6 cells/mouse) as previously described above. Phor 18-LHRH (338613) (ID: 338613 lot #P080401) (0.002, and 0.2 mg/kg) were reconstituted in USP saline prior to dosing. The doses were given as a single bolus intravenous injection via lateral tail vein on days 15, 16, 17, 20, 21, 22, 23, 27, 28, 29, 30, 33, 34, 35, 36, 37, 38, 40, 41, 42 after tumor cell inoculation. Saline injections served as control groups.
Each treatment group consisted of 16 mice. During the entire study tumor volumes were recorded twice weekly. Final necropsy was conducted on day 45 after tumor cell injection. […] due to occlusion of the tail vein in most mice. At study endpoint body weight, tumor weights were determined and fixed in phosphate buffered 10% formalin.

[3] = system: MDA-MB-435S.luc xenograft; experiment: MDA-MB-435S.luc xenograft, LHRH fusion constructs; assay type: in vivo, Nu/Nu mice
Procedure: For LHRH fusion constructs, the mouse xenograft model for breast cancer was used. In brief. Nu/Nu female mice, outbred strain, age 5 weeks (Charles River) were injected subcutaneously with a MDA-MB-435S.luc/Matrigel suspension (1×10^6 cells). Treatment was started on day 21 after tumor cell injection and continued on day 26 and 29. The doses for weekly fusion construct injections were 2, 0.2 and 0.02 mg/kg body weight, given as a bolus single injection. All mice were necropsied 34 days after tumor cell injection-baseline values for tumor weights were obtained by sacrificing 8 mice at treatment start. Primary tumors, liver, kidney, pancreas, heart, lung, and spleen were collected and prepared for histological evaluation in formalin. Tumor weights were recorded at necropsy, part of the tumors were frozen at −80 ° C. for luciferase assay determination.
Characteristics of tumors at necropsy are summarized in FIG. 10; (A) tumor weight, (B) changes of tumor weights compared to baseline, (C) total number of live tumor cells, (D) changes of total live tumor cells compared to baseline, and (E) bodyweights at baseline and necropsy. Viability of tumor cells was determined at the end of the study when tumors were measured for luciferase activity. Treatment efficacy was calculated as difference between measurements at the beginning of treatment compared to the measurement at the end of study (FIG. 10B and 10D).

MCF-7 xenograft = experiment: MCF-7 breast cancer xenograft; assay type: in vivo, nude mice; conditions: MCF-7, 2 × 3 wk, 19 d
Procedure: In vivo efficacy studies were conducted as monotherapy, or a combination therapy with standard of care treatments in nude mice bearing human melanoma xenografts; MDA-MB-435S.luc (s.c.), human breast cancer xenografts MCF-7 (estrogen receptor alpha positive), human ovarian cancer xenografts; OVCAR-3, (s.c.), human prostate cancer xenografts; PC-3 (androgen receptor negative).
Mice were sacrificed one week after the last injection and blood collected for chemistry panel, tumor weights and body weights were recorded. Part of the tumors were fixed in PBS buffered 10% formalin for histological evaluation.

MDA-MB-435S xenograft [4] = experiment: MDA-MB-435S xenograft, kinetics after a single injection; assay type: in vivo, Nu/Nu mice; conditions: 0.2 and 2 mg/kg
Procedure: In brief, Nu/Nu female mice, outbred strain, age 5 weeks (Charles River), were injected (s.c.) into the interscapular region with a MDA-MB-435S (passage #249)/Matrigel suspension (2.4×10^6 cells/mouse) as described in Example 10. Phor 18-LHRH (338613) (ID: 338613 lot #P080401) (0.2, and 2 mg/kg) were reconstituted in USP saline prior to dosing. The doses were given as a single bolus intravenous injection via lateral tail vein.
Mice were sacrificed 1, 2 and 16 hours after treatment with Phor 18-LHRH (338613) or saline. At study endpoint body weight, tumor weights were determined, and tumors were fixed in phosphate buffered 10% formalin.

KFAKFAKKFAKFAKKFAKQHWSYGLRPG [Phor18-LHRH]
reduction of ascites ([1]; ID8): 1.5 fold | reduction of live tumor size ([1]; ID8): 2.1 fold | reduction of tumor weights ([1]; ID8): 3 fold | relative reduction of ascites volumes ([1]; ID8): 35.5% | luminescence counts of tumor at the end of the study ([1]; ID8-luciferase, mean±SD, start 9.2±1.2×10^4): 88.6±21.5 ×10^4 | tumor weights at necropsy ([1]; ID8, Mean±SEM, N=10, controls 1.06±0.08 g): 0.49 ± 0.07 g | ascites volumes ([1]; ID8, Mean±SEM, N=10, vehicle 12.26±0.6 ml): 8.0 ± 0.7 mL | proportion of CD8+ T cells (CD8+ T cells): 17.3±1.1 | tumor free mice (MDA-MB-435S xenograft [2]; 0.002 mg/kg): 6/23 | tumor free mice (MDA-MB-435S xenograft [2]; 0.2 mg/kg): 1/20 | histological examination of H&E stained tumors (MDA-MB-435S xenograft [2]; 0.002 and 0.2 mg/kg, multiple injection regimen): eradication of tumor cells | treatment efficacy (tumor weight, live tumor cells) ([3]; 0.02, 0.2 and 2 mg/kg, vs baseline, saline and Phor21-βCG-ala): Equally effective as Phor21-βCG-ala | tumor volume ([3]; during treatment and after 30 days): smallest tumor volumes | concentrations resulting in tumor weights similar to baseline ([3]; mouse, in vivo): 0.2 mg/kg | In vivo Performance compared to 33 ([3]; tumor weight and live tumor cell reduction vs baseline compared to peptide 33, LHRH construct study): 1 | Median Tumor Weight vs Saline P < 0.05 (dose, growth delay) (MCF-7 xenograft): 0.02 mg/kg | time to destruction of tumors after injection (MDA-MB-435S xenograft [4]): 1 h
